Assay results taken from ChEMBL document CHEMBL1139019, “Tricyclic azepine derivatives: pyrimido[4,5-b]-1,4-benzoxazepines as a novel class of epidermal growth factor receptor kinase inhibitors” (Bioorg Med Chem Lett, 2006).

Experiments:
[1] = molecular target: T1, Epidermal growth factor receptor (Homo sapiens, UniProt P00533)
[2] = molecular target: T1, Epidermal growth factor receptor; test: Inhibition of EGFR autophosphorylation in DiFi cells

T1 sequence (P00533 whole entry): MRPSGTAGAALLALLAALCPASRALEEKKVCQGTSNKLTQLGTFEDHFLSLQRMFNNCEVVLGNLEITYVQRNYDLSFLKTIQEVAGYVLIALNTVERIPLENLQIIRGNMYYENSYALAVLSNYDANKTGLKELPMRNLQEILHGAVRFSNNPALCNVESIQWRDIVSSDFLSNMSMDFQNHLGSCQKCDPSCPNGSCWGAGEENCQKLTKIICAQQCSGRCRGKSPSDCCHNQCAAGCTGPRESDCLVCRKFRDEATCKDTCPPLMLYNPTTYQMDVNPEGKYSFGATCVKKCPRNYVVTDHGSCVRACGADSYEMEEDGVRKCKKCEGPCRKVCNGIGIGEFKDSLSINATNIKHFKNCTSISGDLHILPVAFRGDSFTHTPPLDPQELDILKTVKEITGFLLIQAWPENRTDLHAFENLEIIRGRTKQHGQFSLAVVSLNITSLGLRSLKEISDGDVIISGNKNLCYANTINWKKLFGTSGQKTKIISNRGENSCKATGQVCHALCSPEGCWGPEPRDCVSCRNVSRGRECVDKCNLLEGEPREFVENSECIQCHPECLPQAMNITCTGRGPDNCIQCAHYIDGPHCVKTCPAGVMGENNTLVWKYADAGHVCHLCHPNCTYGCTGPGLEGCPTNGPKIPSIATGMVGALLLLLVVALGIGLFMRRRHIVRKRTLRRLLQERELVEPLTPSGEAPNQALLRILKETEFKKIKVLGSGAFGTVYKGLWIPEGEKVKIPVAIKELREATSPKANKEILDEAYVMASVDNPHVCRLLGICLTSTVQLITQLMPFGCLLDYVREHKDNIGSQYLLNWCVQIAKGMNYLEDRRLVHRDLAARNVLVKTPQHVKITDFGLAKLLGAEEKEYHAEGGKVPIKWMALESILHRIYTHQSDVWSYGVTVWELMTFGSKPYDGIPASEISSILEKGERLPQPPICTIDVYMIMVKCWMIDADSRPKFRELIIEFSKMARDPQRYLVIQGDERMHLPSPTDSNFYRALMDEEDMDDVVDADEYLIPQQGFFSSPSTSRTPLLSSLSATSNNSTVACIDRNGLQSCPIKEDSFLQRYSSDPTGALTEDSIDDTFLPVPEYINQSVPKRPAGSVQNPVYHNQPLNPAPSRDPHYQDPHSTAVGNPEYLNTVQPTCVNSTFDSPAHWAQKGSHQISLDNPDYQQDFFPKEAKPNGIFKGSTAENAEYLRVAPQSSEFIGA

## CS(=O)(=O)Nc1ccc2c(c1)CNc1c(Nc3ccc(F)c(Cl)c3)ncnc1O2
[1]
  IC50: > 10 µM

## COc1cc2c(cc1OC)Oc1ncnc(Nc3ccc(F)c(Cl)c3)c1NC2
[1]
  IC50: 1.2 µM
[2]
  IC50: 0.69 µM

## Nc1ccc2c(c1)CNc1c(Nc3cccc(Br)c3)ncnc1O2
[1]
  IC50: 1.7 µM
[2]
  IC50: > 30 µM

## Fc1ccc2c(c1)CNc1c(Nc3ccccc3)ncnc1O2
[1]
  IC50: 7 µM

## FC(F)(F)Oc1ccc2c(c1)CNc1c(Nc3cccc(Br)c3)ncnc1O2
[1]
  IC50: > 10 µM

## Fc1ccc2c(c1)CNc1c(Nc3ccc(Cl)cc3)ncnc1O2
[1]
  IC50: > 10 µM

## C=CC(=O)Nc1ccc2c(c1)CNc1c(Nc3ccc(F)c(Cl)c3)ncnc1O2
[1]
  IC50: 4.9 µM
[2]
  IC50: 8.9 µM

## COc1cc(OC)c2c(c1)Oc1ncnc(Nc3cccc(Br)c3)c1NC2
[1]
  IC50: 6.3 µM
[2]
  IC50: > 30 µM

## COc1ccc2c(c1)CNc1c(NCc3ccccc3)ncnc1O2
[1]
  IC50: 2 µM
[2]
  IC50: 8.5 µM

## COc1ccc2c(c1)Oc1ncnc(Nc3cccc(Br)c3)c1NC2
[1]
  IC50: 3 µM
[2]
  IC50: 1.9 µM

## Fc1ccc2c(c1)CNc1c(Nc3cccc(Br)c3)ncnc1O2
[1]
  IC50: 1.5 µM
[2]
  IC50: 6.9 µM

## O=C(O)c1ccc2c(c1)CNc1c(Nc3cccc(Br)c3)ncnc1O2
[1]
  IC50: 1 µM
[2]
  IC50: > 30 µM

## COc1ccc2c(c1)CNc1c(Nc3ccc(Cl)cc3)ncnc1O2
[1]
  IC50: 5.8 µM

## Fc1ccc(Nc2ncnc3c2NCc2cc(Cl)ccc2O3)cc1Cl
[1]
  IC50: 1 µM
[2]
  IC50: 4.3 µM

## Nc1ccc2c(c1)CNc1c(Nc3ccc(F)c(Cl)c3)ncnc1O2
[1]
  IC50: 3.7 µM
[2]
  IC50: 9.1 µM

## Fc1ccc(Nc2ncnc3c2NCc2cc(Br)ccc2O3)cc1Cl
[1]
  IC50: 2 µM
[2]
  IC50: 8.4 µM

## Fc1ccc2c(c1)CNc1c(Nc3cccc(-c4ccccc4)c3)ncnc1O2
[1]
  IC50: 2 µM
[2]
  IC50: 9.9 µM

## COc1ccc2c(c1)Oc1ncnc(Nc3ccc(F)c(Cl)c3)c1NC2
[1]
  IC50: 1 µM
[2]
  IC50: 8.9 µM

## COc1ccc2c(c1)CNc1c(Nc3cccc(-c4ccccc4)c3)ncnc1O2
[1]
  IC50: > 10 µM
[2]
  IC50: 9.8 µM

## O=C(O)c1ccc2c(c1)CNc1c(Nc3ccc(F)c(Cl)c3)ncnc1O2
[1]
  IC50: 4.4 µM
[2]
  IC50: > 30 µM

## Clc1ccc2c(c1)CNc1c(Nc3cccc(Br)c3)ncnc1O2
[1]
  IC50: 3.4 µM
[2]
  IC50: > 30 µM

## Fc1ccc2c(c1)CNc1c(NCc3ccccc3)ncnc1O2
[1]
  IC50: 8.9 µM
[2]
  IC50: > 30 µM

## COc1cc2c(cc1OC)Oc1ncnc(Nc3cccc(Br)c3)c1NC2
[1]
  IC50: 0.34 µM
[2]
  IC50: 0.47 µM

## C=CC(=O)Nc1ccc2c(c1)CNc1c(Nc3cccc(Br)c3)ncnc1O2
[1]
  IC50: 5.7 µM
[2]
  IC50: 5.4 µM

## CS(=O)(=O)Nc1ccc2c(c1)CNc1c(Nc3cccc(Br)c3)ncnc1O2
[1]
  IC50: 4.1 µM
[2]
  IC50: 7 µM

## COc1cccc2c1CNc1c(Nc3cccc(Br)c3)ncnc1O2
[1]
  IC50: > 10 µM

## Brc1ccc2c(c1)CNc1c(Nc3ccccc3)ncnc1O2
[1]
  IC50: 10 µM

## COc1ccc2c(c1)CNc1c(Nc3ccccc3)ncnc1O2
[1]
  IC50: 7.5 µM

## COc1ccc2c(c1)CNc1c(Nc3cccc(Br)c3)ncnc1O2
[1]
  IC50: 3.1 µM
[2]
  IC50: 1 µM

## Brc1cccc(Nc2ncnc3c2NCc2cc(Br)ccc2O3)c1
[1]
  IC50: 1 µM
[2]
  IC50: 7.2 µM

## Fc1ccc2c(c1)CNc1c(Nc3ccc(F)c(Cl)c3)ncnc1O2
[1]
  IC50: 1 µM
[2]
  IC50: 7.2 µM

## Fc1ccc(Nc2ncnc3c2NCc2ccccc2O3)cc1Cl
[1]
  IC50: 1.1 µM
[2]
  IC50: 2.7 µM

## COc1ccc2c(c1)CNc1c(Nc3ccc(F)c(Cl)c3)ncnc1O2
[1]
  IC50: 0.9 µM
[2]
  IC50: 2.4 µM
